Measurements as given in patent US9109041B2, “Analog compounds of analgesic peptides derived from the venom of crotalus durissus terrificus snakes, their uses, compositions, methods of preparation and purification” (priority 2004, dated 2015).

System: hyperalgesia induced by chronic constriction of the sciatic nerve
Test: hyperalgesia induced by chronic constriction of the sciatic nerve (rat paw pressure test)
Assay type: in vivo
Conditions: for pain threshold, FM 24 h: day 14, 24 h after peptide; for pain threshold, FM 48 h: day 14, 48 h after peptide; for pain threshold, FM 72 h: day 14, 72 h after peptide; for pain threshold, FM 96 h: day 14, 96 h after peptide
Description: For the induction of neuropathic pain, surgery was performed in the sciatic nerve, in accordance with the method described by Bennett, G. J and Xie, Y. K. (Pain, 33:87-107, 1988). The animals were anesthetized with halothane. The sciatic nerve was exposed in the middle region of the thigh, moving away the femoral biceps muscle. Close to the trifurcation of the sciatic nerve, 7 mm of distance from the trifurcation, 4 loose ligations were performed (chromed catgut 4-0) around it, distant from each other in approximately 1 mm. The bindings were performed along the nerve, up to 4-5 mm from the initial point. The incision was sutured in layers, using silk suture thread number 4-0.
The test was applied before (BM-basal measurement) and on the 14th day after the surgery, to characterize the development of neuropathic pain.
The results were analyzed by comparing the means of the basal and initial measurements or by comparing the means of the initial and final measurements or, when determined, through the comparison of the means obtained in the different experimental groups.
For this purpose, the animals were treated with CTOP, a specific μ receptor antagonist (20 μg/paw), nor-BNI, a specific κ receptor antagonist (50 μg/paw) or with ICI 174,864, a specific δ receptor antagonist (10 μg/paw). The antagonists were injected, by intraplantar route. The peptide was administered in the dose of 5 μg/kg, orally, immediately before the injection of the opioid antagonists.
The results were analyzed comparing the mean values of the basal and initial measurements, or of the initial and final measurements or, when determined, by comparing the mean values obtained in the different experimental groups (Tables 15 and 16).

[1] = oral route, results 1 hour after treatment, reversal of hyperalgesia, CurveExpert 1.3

**Q.** Which results are given for “Xaa-Phe-Ser-Pro-Glu-Asn-Cys-Gln-Gly-Glu-Ser-Gln-Pro-Cys [SEQ ID NO: 2]”?
**A.** pain threshold, FM 24 h (0.04 μg/kg p.o.): 31 ± 1.00 g; pain threshold, FM 48 h (0.04 μg/kg p.o.): 33 ± 1.22 g; pain threshold, FM 72 h (0.04 μg/kg p.o.): 33 ± 0.00 g; pain threshold, FM 96 h (0.04 μg/kg p.o.): 33 ± 1.22 g; pain threshold, IM (0.04 μg/kg p.o., day 14 after surgery, before peptide): 33 ± 1.22 g; pain threshold, BM (0.2 μg/kg p.o., before surgery): 73 ± 1.22 g; pain threshold, FM 1 h (0.2 μg/kg p.o., day 14, 1 h after peptide): 51 ± 1.87 g; pain threshold, FM 3 h (0.2 μg/kg p.o., day 14, 3 h after peptide): 56 ± 1.87 g; pain threshold, FM 24 h (0.2 μg/kg p.o.): 52 ± 1.22 g; pain threshold, FM 48 h (0.2 μg/kg p.o.): 54 ± 1.00 g; pain threshold, FM 72 h (0.2 μg/kg p.o.): 53 ± 1.22 g; pain threshold, FM 96 h (0.2 μg/kg p.o.): 33 ± 1.22 g; pain threshold, IM (0.2 μg/kg p.o., day 14 after surgery, before peptide): 31 ± 1.00 g; pain threshold, BM (1 μg/kg p.o., before surgery): 72 ± 1.22 g; pain threshold, FM 1 h (1 μg/kg p.o., day 14, 1 h after peptide): 73 ± 1.22 g; pain threshold, FM 3 h (1 μg/kg p.o., day 14, 3 h after peptide): 73 ± 1.22 g; pain threshold, FM 24 h (1 μg/kg p.o.): 71 ± 1.00 g; pain threshold, FM 48 h (1 μg/kg p.o.): 74 ± 1.00 g; pain threshold, FM 72 h (1 μg/kg p.o.): 71 ± 1.00 g; pain threshold, FM 96 h (1 μg/kg p.o.): 33 ± 1.22 g; pain threshold, IM (1 μg/kg p.o., day 14 after surgery, before peptide): 31 ± 1.00 g; pain threshold, FM 1 h (5 μg/kg p.o. + CTOP 20 μg/paw i.pl., 1 h after peptide): 105 ± 4.18 g; pain threshold, MF 3 h (5 μg/kg p.o. + CTOP 20 μg/paw i.pl., 3 h after peptide): 112 ± 5.83 g; pain threshold, BM (5 μg/kg p.o. + CTOP 20 μg/paw i.pl., before surgery): 72 ± 1.22 g; pain threshold, IM (5 μg/kg p.o. + CTOP 20 μg/paw i.pl., day 14, before peptide): 41 ± 1.88 g; pain threshold, FM 1 h (5 μg/kg p.o. + ICI 174,864 10 μg/paw i.pl., 1 h after peptide): 35 ± 1.87 g; pain threshold, MF 3 h (5 μg/kg p.o. + ICI 174,864 10 μg/paw i.pl., 3 h after peptide): 37 ± 2.55 g; pain threshold, BM (5 μg/kg p.o. + ICI 174,864 10 μg/paw i.pl., before surgery): 72 ± 1.22 g; pain threshold, IM (5 μg/kg p.o. + ICI 174,864 10 μg/paw i.pl., day 14, before peptide): 34 ± 1.87 g; pain threshold, FM 1 h (5 μg/kg p.o. + nor-BNI 50 μg/paw i.pl., 1 h after peptide): 69 ± 1.87 g; pain threshold, MF 3 h (5 μg/kg p.o. + nor-BNI 50 μg/paw i.pl., 3 h after peptide): 75 ± 1.58 g; pain threshold, BM (5 μg/kg p.o. + nor-BNI 50 μg/paw i.pl., before surgery): 73 ± 1.22 g; pain threshold, IM (5 μg/kg p.o. + nor-BNI 50 μg/paw i.pl., day 14, before peptide): 35 ± 1.58 g; pain threshold, BM (5 μg/kg p.o., before surgery (Table 11)): 72 ± 0.79 g; pain threshold, BM (5 μg/kg p.o., before surgery (Table 15)): 72 ± 1.44 g; pain threshold, FM 1 h (5 μg/kg p.o., day 14, 1 h after peptide (Table 11)): 100 ± 4.42 g; pain threshold, FM 1 h (5 μg/kg p.o., day 14, 1 h after peptide (Table 15)): 114 ± 6.57 g; pain threshold, FM 3 h (5 μg/kg p.o., day 14, 3 h after peptide (Table 11)): 98 ± 4.28 g; pain threshold, MF 3 h (5 μg/kg p.o., day 14, 3 h after peptide (Table 15)): 121 ± 5.91 g; pain threshold, FM 24 h (5 μg/kg p.o.): 99 ± 3.51 g; pain threshold, FM 48 h (5 μg/kg p.o.): 93 ± 3.00 g; pain threshold, FM 72 h (5 μg/kg p.o.): 86 ± 2.45 g; pain threshold, FM 96 h (5 μg/kg p.o.): 33 ± 1.18 g; pain threshold, IM (5 μg/kg p.o., day 14, before peptide (Table 15)): 35 ± 2.04 g; pain threshold, IM (5 μg/kg p.o., day 14 after surgery, before peptide (Table 11)): 32 ± 0.79 g; duration of the anti-hyperalgesic effect (one single administration p.o.): up to 3 days; 50% effective dose [1]: 0.2055 µg/kg; 60% effective dose [1]: 0.2832 µg/kg; 90% effective dose [1]: 0.5747 µg/kg; effect of the mu opioid receptor antagonist on the anti-hyperalgesic effect of the peptide (peptide 5 μg/kg p.o., CTOP 20 μg/paw i.pl.): did not alter; effect of the delta opioid receptor antagonist on the anti-hyperalgesic effect of the peptide (peptide 5 μg/kg p.o., ICI 174,864 10 μg/paw i.pl.): blocked; effect of the kappa opioid receptor antagonist on the anti-hyperalgesic effect of the peptide (peptide 5 μg/kg p.o., nor-BNI 50 μg/paw i.pl.): partially inhibited
